Assay results from patent publication US12715894B2, “Triptolide conjugates and uses thereof” (priority 2020, dated 2026).

Columns and labels:
huh-7 cells = assay: Huh-7 HCC animal model, antitumor efficacy against solid tumors; type: in vivo, male nude mice; details: Huh-7 xenograft; for Tumor volume (V) 4 days after treatment: Compound 1 and 2 at 2.0 mg/kg i.p. once daily, Lenvatinib 5.0 mg/kg oral once daily, control V=598 mm^3; for Tumor inhibition rate based on the average tumor weights: after 21 days treatment, Compound 1 and 2 at 2.0 mg/kg i.p. daily, Lenvatinib 5.0 mg/kg oral daily; for Increase of average tumor volume by the end of the treatment compared to before the treatment: end of 3 weeks daily treatment, given as 'increased up to', control up to 15 times
Procedure: To evaluate the antitumor efficacy of the triptolide conjugates disclosed herein against solid tumors, huh-7 cells (~10×10^6 cells) were injected into the right flank of male nude mice. When the tumors reached a volume of ~150 mm^3, the mice were randomly divided into 4 groups with 7 or 8 mice per group and were treated as below indicated. Tumor volumes were measured twice per week and estimated by using the formula: Tumor volume (V)=(L×W×W)÷2, W is tumor width, L is tumor length. • 1. Group 1 was the control group in which the mice were administered daily the vehicle (0.5% CMC-Na/carboxymethylcellulose sodium, i.p.) for 3 weeks; • 2. Group 2 was the test group in which the mice were administered daily Compound 1 (2.0 mg/kg, i.p.) for 3 weeks; • 3. Group 3 was the test group in which the mice were administered daily Compound 2 (2.0 mg/kg, i.p.) for 3 weeks; and • 4. Group 4 was the positive control group in which the mice where administered daily Lenvatinib (5.0 mg/kg, oral) for 3 weeks.

HepG-2 cells = assay: HepG-2 HCC animal model, antitumor efficacy against solid tumors; type: in vivo, male nude mice; details: HepG-2 xenograft; Conjugate 4 at 2.0 mg/kg, Conjugates 8, 9, 10 at 6.0 mg/kg, i.p. daily for 4 weeks; vehicle group increased to 17.72 times
Procedure: To evaluate the antitumor efficacy of the novel triptolide-conjugate against solid tumors, HepG-2 cells (~10×10^6 cells) were injected into the right flank of male nude mice. when the tumors were reached a volume of ~150 mm^3, mice were randomly divided into 5 groups with 8 mice per group and treated as below indicated. Tumor volumes were measured twice per week and estimated by using the formula: Tumor volume (V)=(L×W×W) 2, W is tumor width, L is tumor length. • 1. Group 1 is the control in which the mice were daily administered vehicle (i.p. brine) for 4 weeks; • 2. in Group 2, mice were daily administered Conjugate 4 (2.0 mg/kg, i.p.) for 4 weeks; • 3. in Group 3, mice were daily administered Conjugate 8 (6.0 mg/kg, i.p.) for 4 weeks; • 4. in Group 4, mice were daily administered Conjugate 9 (6.0 mg/kg i.p.) for 4 weeks; • 5. in Group 5, mice were daily administered Conjugate 10 (6.0 mg/kg, i.p.) for 4 weeks;

## CC(C)[C@]12O[C@H]1[C@@H]1O[C@]13[C@]1(O[C@H]1C[C@H]1C4=C(CC[C@@]13C)C(=O)OC4)[C@@H]2OC(=O)CCC(=O)OC[C@H]1OC(O)[C@H](F)[C@@H](O)[C@@H]1O (stereo partly drawn) [Compound 1, ((2R,3S,4S,5R)-5-fluoro-3,4,6-trihydroxytetrahydro-2H-pyran-2-yl)methyl ((5bS,6aS,7aR,8R,8aS,9aS,9bS,10aS,10bS)-8a-isopropyl-10b-methyl-3-oxo-1,2,3,5,5b,6,6a,8,8a,9a,9b,10b-dodecahydrotris(oxireno)[2′,3′:4b,5;2″,3″:6,7;2′″,3′″:8a,9]phenanthro[1,2-c]furan-8-yl) succinate]
huh-7 cells
  Tumor volume (V) 4 days after treatment: 245 mm^3
  Tumor inhibition rate based on the average tumor weights: 88.3%
  Increase of average tumor volume by the end of the treatment compared to before the treatment: up to 2.0 times

## CC(C)[C@]12O[C@H]1[C@@H]1O[C@]13[C@]1(O[C@H]1C[C@H]1C4=C(CC[C@@]13C)C(=O)OC4)[C@@H]2OC(=O)CCC(=O)N1CCN(C(=O)CCC(=O)N[C@@H]2C(O)O[C@@H](CO)[C@H](O)[C@H]2O)CC1 (stereo partly drawn) [Compound 2, (5bS,6aS,7aR,8R,8aS,9aS,9bS,10aS,10bS)-8a-isopropyl-10b-methyl-3-oxo-1,2,3,5,5b,6,6a,8,8a,9a,9b,10b-dodecahydrotris(oxireno)[2′,3′:4b,5;2″,3″:6,7;2′″,3′″:8a,9]phenanthro[1,2-c]furan-8-yl 4-oxo-4-(4-(4-oxo-4-(((3S,4S,5R,6S)-2,4,5-trihydroxy-6-(hydroxymethyl)tetrahydro-2H-pyran-3-yl)amino)butanoyl)piperazin-1-yl)butanoate]
huh-7 cells
  Tumor volume (V) 4 days after treatment: 315 mm^3
  Tumor inhibition rate based on the average tumor weights: 84.4%
  Increase of average tumor volume by the end of the treatment compared to before the treatment: ≤ 2.7 times

## CC(C)[C@]12O[C@H]1[C@@H]1O[C@]13[C@]1(O[C@H]1C[C@H]1C4=C(CC[C@@]13C)C(=O)OC4)[C@@H]2OC(=O)CNC(=O)CNC(=O)COC[C@H]1OC(O)[C@H](O)[C@@H](O)[C@@H]1O (stereo partly shown) [Compound 4]
HepG-2 cells
  Tumor size after 28 days treatment: gradually shrinked to disappear

## CC(C)[C@]12O[C@H]1[C@@H]1O[C@]13[C@]1(O[C@H]1CC1C4=C(CC[C@@]13C)C(=O)OC4)[C@@H]2OC(=O)CCC(=O)NC(COCCC(=O)NCCCNC(=O)CCCC(=O)N[C@H]1C(O)O[C@H](CO)[C@@H](O)[C@@H]1O)(COCCC(=O)NCCCNC(=O)CCCC(=O)N[C@H]1C(O)O[C@H](CO)[C@@H](O)[C@@H]1O)COCCC(=O)NCCCNC(=O)CCCC(=O)N[C@H]1C(O)O[C@H](CO)[C@@H](O)[C@@H]1O (stereo partly shown) [Compound 8]
HepG-2 cells
  Tumor size after 28 days treatment: gradually shrinked to disappear

## CC(C)[C@]12O[C@H]1[C@@H]1O[C@]13[C@]1(O[C@H]1CC1C4=C(CC[C@@]13C)C(=O)OC4)[C@@H]2OC(=O)CCC(=O)NC(COCCC(=O)NCCCNC(=O)CCCCO[C@@H]1O[C@H](CO)[C@@H](O)[C@H](O)[C@H]1O)(COCCC(=O)NCCCNC(=O)CCCCO[C@@H]1O[C@H](CO)[C@@H](O)[C@H](O)[C@H]1O)COCCC(=O)NCCCNC(=O)CCCCO[C@@H]1O[C@H](CO)[C@@H](O)[C@H](O)[C@H]1O (stereo partly shown) [Compound 9]
HepG-2 cells
  Tumor size after 28 days treatment: gradually shrinked to disappear

## CC(=O)N[C@H]1[C@H](OCCCCC(=O)NCCCNC(=O)CCOCC(COCCC(=O)NCCCNC(=O)CCCCO[C@@H]2O[C@H](CO)[C@H](O)[C@H](O)[C@H]2NC(C)=O)(COCCC(=O)NCCCNC(=O)CCCCO[C@@H]2O[C@H](CO)[C@H](O)[C@H](O)[C@H]2NC(C)=O)NC(=O)CCC(=O)O[C@@H]2[C@@]3(C(C)C)O[C@H]3[C@@H]3O[C@]34[C@]23O[C@H]3CC2C3=C(CC[C@@]24C)C(=O)OC3)O[C@H](CO)[C@H](O)[C@@H]1O (stereo partly shown) [Compound 10]
HepG-2 cells
  Tumor size after 28 days treatment: gradually shrinked to disappear

## COc1cc2nccc(Oc3ccc(NC(=O)NC4CC4)c(Cl)c3)c2cc1C(N)=O [Lenvatinib, reference compound]
huh-7 cells
  Tumor volume (V) 4 days after treatment: 381 mm^3
  Tumor inhibition rate based on the average tumor weights: 42.3%
  Increase of average tumor volume by the end of the treatment compared to before the treatment: ≤ 9 times
